The values that follow are results of earlier work, collected in article PMC11235333, “Glucagon-like peptide-1 stimulates acute secretion of pro-atrial natriuretic peptide from the isolated, perfused pig lung exposed to warm ischemia” (Frontiers in Transplantation, 2022).

The data set has as its system lipopolyssacharide induced endotoxemia in rats. Particulars: lipopolysaccharide induced endotoxemia, after 3 h, ref Yanay et al. On the procedure: In studies with 24 h EVLP and transplantation of donor lungs, a rise of IL-8 concentration, proportional to the duration of warm ischaemia, was observed ([78], [79]). In the majority of studies investigating the anti-inflammatory effects of GPL-1 in the lungs, treatment was given more than 6 ...

exendin-4: the Inflammatory cytokines result is “decreased IL-1α, IL-1β, IL-6, TNFα and IFNγ but not IL-10”.
